Reference: PubChem BioAssay (NCI)
Several values for one entry are separate records, joined by “and”; a condition that tells them apart may be missing. Equal values may be shown once.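 1) Cells in 96-well plates. 2) Compound, 48 h, 5 concentrations. 3) Linear interpolation between surrounding doses. 4) Unreached endpoint = highest concentration. Abbreviation: GI50, concentration required for 50% inhibition of growth. At the TGI there is no net growth.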 Activity calls are given as the source filed them. No stated cut-off is given here; in the data, active means GI50 below about 0.43 µM; inactive means the rest.

Assays:
Assay in all cases: NCI tumour cell line growth inhibition, 48 h
BT-549 breast = tested on: BT-549 breast
HT29 colon = tested on: HT29 colon
TK-10 renal = tested on: TK-10 renal
UO-31 renal = tested on: UO-31 renal
M19-MEL melanoma = tested on: M19-MEL melanoma
HCC-2998 colon = tested on: HCC-2998 colon
SF-539 CNS = tested on: SF-539 CNS
PC-3 prostate = tested on: PC-3 prostate
M14 melanoma = tested on: M14 melanoma
SK-OV-3 ovarian = tested on: SK-OV-3 ovarian
OVCAR-8 ovarian = tested on: OVCAR-8 ovarian
EKVX NSCLC = tested on: EKVX NSCLC
A549 NSCLC = tested on: A549 NSCLC
SK-MEL-5 melanoma = tested on: SK-MEL-5 melanoma
HS 578T breast = tested on: HS 578T breast
SR leukemia = tested on: SR leukemia
HOP-92 NSCLC = tested on: HOP-92 NSCLC
NCI-H226 lung = tested on: NCI-H226 lung
T-47D breast = tested on: T-47D breast
LOX IMVI melanoma = tested on: LOX IMVI melanoma
OVCAR-5 ovarian = tested on: OVCAR-5 ovarian
SK-MEL-28 melanoma = tested on: SK-MEL-28 melanoma
MDA-MB-435 = tested on: MDA-MB-435
KM12 colon = tested on: KM12 colon
KM20L2 colon = tested on: KM20L2 colon
DMS 273 small cell lung = tested on: DMS 273 small cell lung
MALME-3M melanoma = tested on: MALME-3M melanoma
UACC-257 melanoma = tested on: UACC-257 melanoma
ACHN renal = tested on: ACHN renal
SF-295 CNS = tested on: SF-295 CNS
NCI-H522 lung = tested on: NCI-H522 lung
CCRF-CEM leukemia = tested on: CCRF-CEM leukemia
HL-60(TB) leukemia = tested on: HL-60(TB) leukemia
MDA-MB-231 breast = tested on: MDA-MB-231 breast
HCT-116 colon = tested on: HCT-116 colon
HOP-62 NSCLC = tested on: HOP-62 NSCLC
SF-268 CNS = tested on: SF-268 CNS
IGROV1 ovarian = tested on: IGROV1 ovarian
MDA-N = tested on: MDA-N
SK-MEL-2 melanoma = tested on: SK-MEL-2 melanoma
CAKI-1 renal = tested on: CAKI-1 renal
NCI-H23 lung = tested on: NCI-H23 lung
A498 renal = tested on: A498 renal
SNB-19 CNS = tested on: SNB-19 CNS
SN12C renal = tested on: SN12C renal
OVCAR-4 ovarian = tested on: OVCAR-4 ovarian
SNB-75 CNS = tested on: SNB-75 CNS
RPMI-8226 leukemia = tested on: RPMI-8226 leukemia
DMS 114 small cell lung = tested on: DMS 114 small cell lung
DU-145 prostate = tested on: DU-145 prostate
SW-620 colon = tested on: SW-620 colon
SNB-78 CNS = tested on: SNB-78 CNS
NCI-H460 lung = tested on: NCI-H460 lung
MOLT-4 leukemia = tested on: MOLT-4 leukemia
UACC-62 melanoma = tested on: UACC-62 melanoma
HOP-18 NSCLC = tested on: HOP-18 NSCLC
RXF 393 renal = tested on: RXF 393 renal
MCF7 breast = tested on: MCF7 breast
HCT-15 colon = tested on: HCT-15 colon
786-0 renal = tested on: 786-0 renal
OVCAR-3 ovarian = tested on: OVCAR-3 ovarian
U251 CNS = tested on: U251 CNS
COLO 205 colon = tested on: COLO 205 colon
K-562 leukemia = tested on: K-562 leukemia
LXFL 529 NSCLC = tested on: LXFL 529 NSCLC

COc1cccc2c1C(=O)c1c(O)c3c(c(O)c1C2=O)C[C@@](O)(C(=O)CO)C[C@@H]3OC1CC(N)C(O)C(C)O1 (some centres not stated)
outcome (BT-549 breast): inactive
outcome (HT29 colon): inactive
outcome (TK-10 renal): inactive
GI50 (UO-31 renal): 1850 nM
outcome (UO-31 renal): inactive
TGI (M19-MEL melanoma): 974 nM
outcome (HCC-2998 colon): inactive
GI50 (SF-539 CNS): 191 nM
outcome (SF-539 CNS): inactive
outcome (PC-3 prostate): inactive
GI50 (M14 melanoma): 432 nM
outcome (M14 melanoma): inactive
outcome (SK-OV-3 ovarian): inactive
outcome (OVCAR-8 ovarian): inactive
outcome (EKVX NSCLC): inactive
GI50 (A549 NSCLC): 109 nM and 60.9 nM and 106 nM
outcome (A549 NSCLC): inactive
TGI (SK-MEL-5 melanoma): 340 nM [middle of 5 runs]
outcome (SK-MEL-5 melanoma): inactive
GI50 (HS 578T breast): < 10 nM
outcome (HS 578T breast): inactive
outcome (SR leukemia): inactive
GI50 (HOP-92 NSCLC): 306 nM
outcome (HOP-92 NSCLC): inactive
outcome (NCI-H226 lung): inactive
outcome (T-47D breast): inactive
GI50 (LOX IMVI melanoma): 39.2 nM and 91.7 nM
TGI (OVCAR-5 ovarian): 5.37 µM [middle of 4 runs]
outcome (OVCAR-5 ovarian): inactive
GI50 (SK-MEL-28 melanoma): 593 nM
TGI (SK-MEL-28 melanoma): 1.7 µM [middle of 4 runs]
outcome (SK-MEL-28 melanoma): inactive
GI50 (MDA-MB-435): 607 nM
TGI (MDA-MB-435): 1.87 µM [middle of 4 runs]
outcome (MDA-MB-435): inactive
outcome (KM12 colon): inactive
TGI (KM20L2 colon): 15900 nM
TGI (DMS 273 small cell lung): 2450 nM
GI50 (MALME-3M melanoma): 136 nM
TGI (MALME-3M melanoma): 628 nM [middle of 5 runs]
outcome (MALME-3M melanoma): inactive
outcome (UACC-257 melanoma): inactive
GI50 (ACHN renal): 105 nM and 81 nM and 176 nM
outcome (ACHN renal): inactive
GI50 (SF-295 CNS): 210 nM
outcome (SF-295 CNS): inactive
GI50 (NCI-H522 lung): 193 nM
outcome (NCI-H522 lung): inactive
outcome (CCRF-CEM leukemia): inactive
outcome (HL-60(TB) leukemia): inactive
GI50 (MDA-MB-231 breast): 949 nM
TGI (MDA-MB-231 breast): 4.83 µM [middle of 4 runs]
outcome (MDA-MB-231 breast): inactive
outcome (HCT-116 colon): inactive
GI50 (HOP-62 NSCLC): 145 nM
outcome (HOP-62 NSCLC): inactive
GI50 (SF-268 CNS): 219 nM
outcome (SF-268 CNS): inactive
GI50 (IGROV1 ovarian): 272 nM
outcome (IGROV1 ovarian): inactive
TGI (MDA-N): 1110 nM and 1880 nM and 1410 nM
outcome (MDA-N): inactive
outcome (SK-MEL-2 melanoma): inactive
outcome (CAKI-1 renal): inactive
outcome (NCI-H23 lung): inactive
GI50 (A498 renal): 81.4 nM and 195 nM
TGI (A498 renal): 550 nM and 696 nM
outcome (A498 renal): inactive
outcome (SNB-19 CNS): inactive
outcome (SN12C renal): inactive
TGI (OVCAR-4 ovarian): 5.19 µM [middle of 4 runs]
outcome (OVCAR-4 ovarian): inactive
GI50 (SNB-75 CNS): 245 nM
outcome (SNB-75 CNS): inactive
outcome (RPMI-8226 leukemia): inactive
TGI (DMS 114 small cell lung): 591 nM
GI50 (DU-145 prostate): 169 nM [middle of 4 runs]
outcome (DU-145 prostate): inactive
outcome (SW-620 colon): inactive
TGI (SNB-78 CNS): 8730 nM
outcome (NCI-H460 lung): inactive
GI50 (MOLT-4 leukemia): < 22.1 nM
outcome (MOLT-4 leukemia): inactive
GI50 (UACC-62 melanoma): 149 nM
outcome (UACC-62 melanoma): inactive
TGI (HOP-18 NSCLC): 13600 nM
GI50 (RXF 393 renal): 402 nM
TGI (RXF 393 renal): 1.04 µM [middle of 4 runs]
outcome (RXF 393 renal): inactive
outcome (MCF7 breast): inactive
GI50 (HCT-15 colon): 3880 nM
outcome (HCT-15 colon): inactive
outcome (786-0 renal): inactive
outcome (OVCAR-3 ovarian): inactive
outcome (U251 CNS): inactive
GI50 (COLO 205 colon): 498 nM
outcome (COLO 205 colon): inactive
GI50 (K-562 leukemia): 218 nM
outcome (K-562 leukemia): inactive

CCNC(=S)NNC(=O)c1nsc2ccccc12
TGI (HT29 colon): > 100000 nM
TGI (TK-10 renal): > 100000 nM
TGI (UO-31 renal): > 100000 nM
TGI (M19-MEL melanoma): > 100000 nM
TGI (HCC-2998 colon): > 100000 nM
TGI (SF-539 CNS): > 100000 nM
TGI (M14 melanoma): > 100000 nM
TGI (OVCAR-8 ovarian): > 100000 nM
TGI (EKVX NSCLC): > 100000 nM
TGI (A549 NSCLC): > 100000 nM
TGI (SK-MEL-5 melanoma): > 100000 nM
TGI (SR leukemia): > 100000 nM
TGI (HOP-92 NSCLC): > 100000 nM
TGI (LOX IMVI melanoma): > 100000 nM
TGI (OVCAR-5 ovarian): > 100000 nM
TGI (SK-MEL-28 melanoma): > 100000 nM
TGI (KM12 colon): > 100000 nM
TGI (KM20L2 colon): > 100000 nM
TGI (DMS 273 small cell lung): > 100000 nM
TGI (UACC-257 melanoma): > 100000 nM
TGI (LXFL 529 NSCLC): > 100000 nM
TGI (ACHN renal): > 100000 nM
TGI (CCRF-CEM leukemia): > 100000 nM
TGI (HL-60(TB) leukemia): > 100000 nM
TGI (HCT-116 colon): > 100000 nM
TGI (HOP-62 NSCLC): > 100000 nM
TGI (SF-268 CNS): > 100000 nM
TGI (IGROV1 ovarian): > 100000 nM
TGI (SK-MEL-2 melanoma): > 100000 nM
TGI (NCI-H23 lung): > 100000 nM
TGI (SNB-19 CNS): > 100000 nM
TGI (SN12C renal): > 100000 nM
TGI (OVCAR-4 ovarian): > 100000 nM
TGI (SNB-75 CNS): > 100000 nM
TGI (RPMI-8226 leukemia): > 100000 nM
TGI (DMS 114 small cell lung): > 100000 nM
TGI (SW-620 colon): > 100000 nM
TGI (SNB-78 CNS): > 100000 nM
TGI (NCI-H460 lung): > 100000 nM
TGI (MOLT-4 leukemia): > 100000 nM
TGI (UACC-62 melanoma): > 100000 nM
TGI (HOP-18 NSCLC): > 100000 nM
TGI (RXF 393 renal): > 100000 nM
TGI (HCT-15 colon): > 100000 nM
TGI (OVCAR-3 ovarian): > 100000 nM
TGI (U251 CNS): > 100000 nM
TGI (COLO 205 colon): > 100000 nM
TGI (K-562 leukemia): > 100000 nM
